# Patent US20080293712A1, “Benzo[C][2,7]Naphtyridine Derivatives, Methods of Making Thereof and Methods of Use Thereof” (WYETH, priority 2007, published 2008)
# Molecular target: T1, PDK-1 (Homo sapiens, UniProt O15530)
# T1 sequence (O15530 1-556): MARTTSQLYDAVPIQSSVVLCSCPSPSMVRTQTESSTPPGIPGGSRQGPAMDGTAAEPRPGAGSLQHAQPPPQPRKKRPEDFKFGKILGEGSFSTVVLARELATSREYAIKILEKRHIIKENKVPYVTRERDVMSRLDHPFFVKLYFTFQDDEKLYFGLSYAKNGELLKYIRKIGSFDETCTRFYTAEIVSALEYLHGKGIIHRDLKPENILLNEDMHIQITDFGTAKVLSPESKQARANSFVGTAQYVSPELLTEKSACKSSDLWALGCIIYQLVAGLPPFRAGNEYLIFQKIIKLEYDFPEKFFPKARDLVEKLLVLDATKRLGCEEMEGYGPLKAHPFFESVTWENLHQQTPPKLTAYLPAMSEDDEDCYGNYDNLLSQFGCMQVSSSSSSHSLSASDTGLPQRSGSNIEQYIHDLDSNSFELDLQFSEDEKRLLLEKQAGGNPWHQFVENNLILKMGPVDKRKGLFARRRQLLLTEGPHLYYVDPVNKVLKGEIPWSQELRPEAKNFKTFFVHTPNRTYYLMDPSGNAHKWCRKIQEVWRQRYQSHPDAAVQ
# Experiment: PDK-1 kinase inhibition ELISA assay (phosphorylation of His6-tagged SGK1 S422D by PDK-1)
# Assay type: biochemical
# Details: not given
row,IC50 [nM],SMILES
1,434,"COc1cccc(Nc2cncc(-c3cc4c(cnc5cc(OC)c(OC)cc54)c(N)n3)c2)c1 [Ib-176, 8,9-dimethoxy-2-{5-[(3-methoxyphenyl)amino]pyridin-3-yl}benzo[c][2,7]naphthyridin-4-amine]"

# Same assay, conditions: PDK-1 ELISA, Table 11; read-out: Average IC50
row,IC50 [nM],SMILES
1,> 20000,"COCCOc1cc2ncc3c(N)nc(NCCN4CCCCC4)cc3c2cc1OC [Ia-49, 9-methoxy-8-(2-methoxyethoxy)-N^2-(2-piperidin-1-ylethyl)benzo[c]-2,7-naphthyridine-2,4-diamine]"
2,477,"COc1cc2ncc3c(N)nc(-c4cncc(Nc5ccncc5)c4)cc3c2cc1OC [Ib-201, 8,9-dimethoxy-2-[5-(pyridin-4-ylamino)pyridin-3-yl]benzo[c][2,7]naphthyridin-4-Amine]"
3,32,"CC[C@@H](COc1cncc(-c2cc3c(cnc4cc(OC)c(OC)cc43)c(N)n2)c1)NC(=N)N [Ib-251, (S)-1-(1-(5-(4-amino-8,9-dimethoxybenzo[c][2,7]naphthyridin-2-yl)pyridin-3-yloxy)butan-2-yl)guanidine]"
4,61,"COc1cc2ncc3c(N)nc(-c4cncc(OC[C@@H](N)CNC5CCCCC5)c4)cc3c2cc1OC [Ib-89, (2S)-3-{[5-(4-amino-8,9-dimethoxybenzo[c][2,7]naphthyridin-2-yl)pyridin-3-yl]oxy}-N1-cyclohexylpropane-1,2-diamine]"
5,4970,"COc1cc2ncc3c(N)nc(N4CC[C@@H](N(C)C)C4)cc3c2cc1OC [Ib-66, 2-[(3R)-3-(dimethylamino)pyrrolidin-1-yl]-8,9-dimethoxybenzo[c]-2,7-naphthyridin-4-amine]"
6,10,"COc1cc2ncc3c(N)nc(-c4cncc(OC[C@@H](N)COc5ccccc5F)c4)cc3c2cc1OC [Ib-141, 2-(5-{[(2R)-2-amino-3-(2-fluorophenoxy)propyl]oxy}pyridin-3-yl)-8,9-dimethoxybenzo[c][2,7]naphthyridin-4-amine]"
7,3,"COc1cc2ncc3c(N)nc(-c4cncc(OC[C@@H](N)CNc5ccccc5)c4)cc3c2cc1OC [Ib-80, (2S)-3-{[5-(4-amino-8,9-dimethoxybenzo[c][2,7]naphthyridin-2-yl)pyridin-3-yl]oxy}-N^1-phenylpropane-1,2-diamine]"
8,1000,"COc1cc2ncc3c(N)nc(-c4cccc(C(=O)NCc5cccnc5)c4)cc3c2cc1OC [Ib-248, 3-(4-amino-8,9-dimethoxybenzo[c][2,7]naphthyridin-2-yl)-N-(pyridin-3-ylmethyl)benzamide]"
9,1000,"COc1cc2ncc3c(N)nc(-c4cncc(Nc5ccccc5OCc5ccccc5)c4)cc3c2cc1OC [Ib-202, 2-(5-{[2-(benzyloxy)phenyl]amino}pyridin-3-yl)-8,9-dimethoxybenzo[c][2,7]naphthyridin-4-amine]"
10,5,"COc1cc2ncc3c(N)nc(-c4cncc(OCCN)c4)cc3c2cc1OC [Ib-11, 2-(5-(2-aminoethoxy)pyridin-3-yl)-8,9-dimethoxybenzo [c][2,7]naphthyridin-4-amine]"
11,10,"COc1cc2ncc3c(N)nc(-c4cncc(OC[C@@H](N)COc5ccncc5)c4)cc3c2cc1OC [Ib-151, 2-(5-{[(2S)-2-amino-3-(pyridin-4-yloxy)propyl]oxy}pyridin-3-yl)-8,9-dimethoxybenzo[c][2,7]naphthyridin-4-amine]"
12,46.5,"CCNCCOc1cncc(-c2cc3c(cnc4cc(OC)c(OC)cc43)c(N)n2)c1 [Ib-73, 2-(5-(2-(ethylamino)ethoxy)pyridin-3-yl)-8,9-dimethoxybenzo[c][2,7]naphthyridin-4-amine]"
13,2,"CC[C@@H](N)COc1cncc(-c2cc3c(cnc4cc(OC)c(OC)cc43)c(N)n2)c1 [Ib-18, 2-(5-{[(2R)-2-aminobutyl]oxy}pyridin-3-yl)-8,9-dimethoxybenzo[c]-2,7-naphthyridin-4-amine]"
14,50.7,"COc1cc2ncc3c(N)nc(-c4cncc(Nc5ccccc5N)c4)cc3c2cc1OC [Ib-182, N-[5-(4-amino-8,9-dimethoxybenzo[c][2,7]naphthyridin-2-yl)pyridin-3-yl]benzene-1,2-diamine]"
15,6920,"COc1cc2c(cc1OCC1CCN(C)CC1)ncc1c(N)nc(-c3ccncc3)cc12 [Ia-22, 9-Methoxy-8-[(1-methylpiperidin-4-yl)methoxy]-2-pyridin-4-ylbenzo[c]-2,7-naphthyridin-4-amine]"
16,147,"COc1cc(F)cc(-c2cc3c(cnc4cc(OC)c(OC)cc43)c(N)n2)c1 [Ib-242, 2-(3-fluoro-5-methoxyphenyl)-8,9-dimethoxybenzo[c][2,7]naphthyridin-4-amine]"
17,53,"COc1cc2ncc3c(N)nc(-c4cncc(C#CCN)c4)cc3c2cc1OC [Ib-252, 2-[5-(3-aminoprop-1-yn-1-yl)pyridin-3-yl]-8,9-dimethoxybenzo[c][2,7]naphthyridin-4-amine]"
18,39,"COc1cc2ncc3c(N)nc(-c4cncc(Nc5cccc(C(N)=O)c5)c4)cc3c2cc1OC [Ib-188, 3-{[5-(4-amino-8,9-dimethoxybenzo[c][2,7]naphthyridin-2-yl)pyridin-3-yl]amino}benzamide]"
19,158,"COc1cc2ncc3c(N)nc(-c4cncc(Nc5cccnc5)c4)cc3c2cc1OC [Ib-200, 8,9-dimethoxy-2-[5-(pyridin-3-ylamino)pyridin-3-yl]benzo[c][2,7]naphthyridin-4-Amine]"
20,549,"CCOc1cc2ncc3c(N)nc(-n4ccnc4)cc3c2cc1NC(=S)NCCN1CCOCC1 [Ia-26, N-[4-amino-8-ethoxy-2-(1H-imidazol-1-yl)benzo[c]-2,7-naphthyridin-9-yl]-N′-(2-morpholin-4-ylethyl)thiourea]"
21,2450,"COCCOc1cc2ncc3c(N)nc(N4CCCCC4C)cc3c2cc1OC (stereo not shown) [Ia-43, 9-methoxy-8-(2-methoxyethoxy)-2-(2-methylpiperidin-1-yl)benzo[c]-2,7-naphthyridin-4-amine]"
22,82,"COc1cc2ncc3c(N)nc(-c4cncc(OC[C@@H]5CN=C(Nc6ccccc6)N5)c4)cc3c2cc1OC [Ib-114, 2-(5-{[(5S)-2-anilino-4,5-dihydro-1H-imidazol-5-yl]methoxy}pyridin-3-yl)-8,9-dimethoxybenzo[c][2,7]naphthyridin-4-amine]"
23,91,"COc1cc2ncc3c(N)nc(-c4cncc(Nc5ccc(CCO)cc5)c4)cc3c2cc1OC [Ib-198, 2-(4-{[5-(4-amino-8,9-dimethoxybenzo[c][2,7]naphthyridin-2-yl)pyridin-3-yl]amino}phenyl)ethanol]"
24,4120,"COc1cc2ncc3c(N)nc(N4CC[C@H](O)C4)cc3c2cc1OC [Ib-68, (3S)-1-(4-amino-8,9-dimethoxybenzo[c]-2,7-naphthyridin-2-yl)pyrrolidin-3-ol]"
25,7,"COc1cc2ncc3c(N)nc(-c4cncc(OC[C@@H](N)COc5ccc(F)c(F)c5)c4)cc3c2cc1OC [Ib-143, 2-(5-{[(2S)-2-amino-3-(3,4-difluorophenoxy)propyl]oxy}pyridin-3-yl)-8,9-dimethoxybenzo[c][2,7]naphthyridin-4-amine]"
26,14,"COc1cc2ncc3c(N)nc(-c4cncc(OC[C@@H](N)CNCC(F)(F)F)c4)cc3c2cc1OC [Ib-109, (2S)-3-{[5-(4-amino-8,9-dimethoxybenzo[c][2,7]naphthyridin-2-yl)pyridin-3-yl]oxy}-N1-(2,2,2-trifluoroethyl)propane-1,2-diamine]"
27,600,"COc1cc2ncc3c(N)nc(-c4cncc(Nc5ccc(C#N)cc5)c4)cc3c2cc1OC [Ib-180, 4-{[5-(4-amino-8,9-dimethoxybenzo[c][2,7]naphthyridin-2-yl)pyridin-3-yl]amino}benzonitrile]"
